Source: patent publication US7129271B2, “Compounds for pest control and methods for their use” (The United States of America as represented by the …, priority 2000, dated 2006)
≈ marks a conversion by molar mass, not a printed value. Like-named read-outs stand apart in the source and are kept apart here.

Experiments:
[1] = system: nymphal Ixodes scapularis; test: Treated-vial biocidal screening, 2% acetone solutions (Example 2); assay type: in vivo; conditions: for I. scapularis nymphs (24 h), number killed/number tested: 2% acetone solution (wt./vol.) dried in vials; for I. scapularis nymphs (72 h), number killed/number tested: treated vials sat 72 h, arthropods added for final 24 h
Protocol: (§1) Samples of the compounds listed below Were obtained from Dr. Karchesy, a co-inventor, and screened for biocidal activities against nymphal Ixodes scapularis. In this example, 2% acetone solutions (wt./vol.) of the compounds were applied to inner surfaces of 2-dram friction cap vials. Vials and caps were treated then allowed to dry for a minimum of 4 hours before placing 10 nymphs in each container. These same vials were used to challenge additional nymphs and adult I. scapularis ticks and adult Xenopsylla cheopis fleas through five weeks to observe any possible residual activity.
(§2) Numbers in parentheses refer to length of treatment in terms of hours (h) or weeks (wk). Data is presented in terms of number killed/number tested. For test periods longer than 24 hours, the treated vials were allowed to sit for the stated period after drying (72 h, 4 wk, or 5 wk) and each group of arthropods was added to the vials for the final 24 h of the test period.

[2] = system: adult I. scapularis ticks; test: Treated-vial biocidal screening, residual challenge (Example 2); assay type: in vivo, Ixodes scapularis; conditions: treated vials sat 4 wk; arthropods added for final 24 h
Protocol: as §1, §2

[3] = system: adult Xenopsylla cheopis fleas; test: as above; assay type: in vivo; conditions: treated vials sat 5 wk; arthropods added for final 24 h
Protocol: as §1, §2

[4] = system: ticks, fleas, formicids and termites; test: Persistence of biocidal activity, vials treated with 2% solutions (Example 5); assay type: in vivo
Protocol: as §1
Persistence of biocidal activity was determined for nootkatone and valencene-11,12-epoxide by using the vials as treated with the 2% solutions of Example 2. […] At 11 weeks, the biocidal activity began to dissipate below the 100% mortality level.

nymphal I. scapularis = test: Baseline dose-mortality, method of Maupin and Piesman 1994 (Example 7); assay type: in vivo; conditions: nymphal ticks
Source text: Baseline dose-mortalities were established for nymphal I. scapularis for nootkatone and valencene-11,12-epoxide using the method described in Maupin, G. O., and Piesman, J., J. Med. Entomol., 31:319–21 (1994).
A comparison of relative potency was made with published data for carbaryl and permethrin (Maupin and Piesman, 1994) and Alaska yellow cedar essential oil (Panella et al., J. Med. Entomol. 34:340–45 (1997) is presented in Table 6.

I. scapularis nymphs = test: Tick bioassay, modified disposable pipette method, treated vials (Example 9); assay type: in vivo, Ixodes scapularis
Protocol: Tick Colonies. […] There was no known pesticide used at this location. Ticks were maintained at 21° C., 90% RH, and received a 16:8 h (light:dark) cycle as described in […]. Med. […] Tick and Flea Bioassays. […] A control treated with acetone only was run with each series. Tick and flea susceptibility was evaluated using a modified disposable pipette method. See, Barnard, D. R., et al., J. Econ. […] Three to 4 holes were made in the plastic cap to allow for air exchange. Nymphal ticks and adult fleas were then placed directly into the vials using forceps. Vials containing ticks or fleas were placed in desiccators for 24 h at 21° C. and 90% RH. […] For each time point, if ticks were incapable of movement, maintaining normal posture, leg coordination, ability to right themselves, or any signs of life, they were considered moribund or dead.

X. cheopis adults = test: Flea bioassay, treated vials (Example 9); assay type: in vivo; conditions: 24 h exposure, 95% CI in parentheses
Protocol: Flea Colonies. Adult X. cheopis fleas (1–3 wk old) were obtained from a colony founded more than eight years ago using adults received from Tom Schwan, Rocky Mountain Laboratories, Hamilton, Mont. The area from which these original adult fleas were obtained, and the resulting colony, have no known histories of pesticide exposure.
(§3) Tick and Flea Bioassays. Concentrations of the compounds were prepared by 2-fold serial dilutions of a 0.5% (wt:vol) solution of the extracts in acetone. […] A control treated with acetone only was run with each series. Tick and flea susceptibility was evaluated using a modified disposable pipette method. See, Barnard, D. R., et al., J. Econ. Entomol.
(§4) The inner surface of 2-dram friction cap vials were treated with the compound/acetone solution, or acetone only as a control, and left to air-dry overnight. Three to 4 holes were made in the plastic cap to allow for air exchange. Nymphal ticks and adult fleas were then placed directly into the vials using forceps. Vials containing ticks or fleas were placed in desiccators for 24 h at 21° C. and 90% RH. Morbidity and mortality was recorded at 1, 2, 4, 8, and 24 h after initial exposure.

Ae. aegypti adults = test: Mosquito bottle bioassay (Example 9); assay type: in vivo; conditions: 24 h exposure, 95% CI in parentheses
Protocol: Mosquito Colonies. Aedes aegypti adult mosquitoes were obtained from an existing colony at the Centers for Disease Control and Prevention (CDC), Division of Vector-Borne Infectious Diseases (DVBID), Fort Collins, Colo. This colony has been maintained for over fifteen years with no known history of exposure to pesticides. Mosquitoes were reared at 28° C., 85% RH, and a 14:10 h (light:dark) cycle. Larvae were grown in de-ionized water and fed ground liver powder solution ad libitum. Fourth instars were removed and placed in emergence cages, and adults were fed a 2% sucrose solution until assayed. Adults were exposed to test products at 4–7 d after emergence.
(§5) Mosquit Bioassay. Adult mosquitoes were tested using the bottle bioassay method of Brogden, W. G., and McAllister, J. C., J. Am. Mosq. Control Assoc. 14:159–64 (1998), with minor modifications. Natural product extracts were two-fold serially diluted for a total of 8 concentrations ranging from 0.002% to 0.25% in 1.5 ml of acetone. Individual dilutions were added to 250 ml Wheaton glass bottles and capped. Bottles were manipulated to evenly coat all inner surfaces. The caps were removed and bottles were allowed to air-dry overnight. Once bottles were completely dry, 10–50 adult mosquitoes were aspirated into the bottles. Mosquitoes were held in the bottles for 24 h at 23° C. and 85% RH. Morbidity and mortality were recorded at 15, 30, 45, and 60 min and 24 hour intervals. One bottle for each replicate was treated with acetone only and served as a control. The dose-mortality data was evaluated with probit analysis, using the LdP Line software, to determine LC50 and LC90 values.

Ixodes scapularis nymphs = test: Residual activity, treated vials aged before loading (Example 9); assay type: in vivo
Protocol: as §3, with “acetone. The approximate toxicity of individual compounds was determined with a total of 8 doses ranging from 0.002% to 0.25%.” for “acetone.”, “Entomol. 74:466–69 (1981).” for “Entomol.”
as §4, with “Groups of 10 nymphal I. scapularis and X. cheopis fleas were used in all tests, resulting in a total of 5,240 nymphs and 4,860 fleas exposed to the compounds. The” for “The”

[5] = system: Xenopsylla cheopis adults; test: as above; assay type: in vivo
Protocol: as §3, with “acetone. The approximate toxicity of individual compounds was determined with a total of 8 doses ranging from 0.002% to 0.25%.” for “acetone.”, “Entomol. 74:466–69 (1981).” for “Entomol.”
as §4, with “Groups of 10 nymphal I. scapularis and X. cheopis fleas were used in all tests, resulting in a total of 5,240 nymphs and 4,860 fleas exposed to the compounds. The” for “The”

Aedes aegypti adults = test: Residual activity, treated bottles aged before loading (Example 9); assay type: in vivo
Protocol: as §5

[6] = system: ticks, fleas, and mosquitoes; test: Residual activity, overall statements for ticks, fleas and mosquitoes (Example 9); conditions: 1 to 4 weeks after treatment
[7] = system: I. scapularis nymphs, X. cheopis adults, and Ae. aegypti adults; test: Initial screening against all three arthropods (Example 9); assay type: in vivo; conditions: 24 hours exposure; ticks, fleas, mosquitoes
Protocol: Valencene-13-aldehyde was prepared by oxidation of valencene with SeO2. […] Commercial samples of nootkatone for comparison were obtained from Bedoukian Research, Inc., Danbury, Conn. (semi-synthetic crystalline) and Frutarom, Inc. N.J. (from grapefruit oil). […] The compounds identified by an asterisk—nos.

Culex p. pipiens = test: Mosquito susceptibility, serial dilutions (Example 8); conditions: in vivo
[8] = 24 h exposure, 95% CI in parentheses
[9] = Aedes aegypti, 24 h, read-out: LC50
[10] = residual activity at 1 week after treatment
[11] = residual activity at 2 weeks after treatment
[12] = residual activity at 4 weeks after treatment

Row | Structure (SMILES) | I. scapularis nymphs (24 h), number killed/number tested [1] | I. scapularis nymphs (72 h), number killed/number tested [1] | I. scapularis adults (4 wk), number killed/number tested [2] | X. cheopis adults (5 wk), number killed/number tested [3] | LC50 (I. scapularis nymphs; [8]) | LC50 (X. cheopis adults) | LC50 (Ae. aegypti adults; [9]) | LC50 (Ixodes scapularis nymphs; [10]) | LC90 (Ixodes scapularis nymphs; [10]) | LC50 (Ixodes scapularis nymphs; [11]) | LC90 (Ixodes scapularis nymphs; [11]) | LC50 (Ixodes scapularis nymphs; [12]) | LC90 (Ixodes scapularis nymphs; [12]) | LC50 [5, 10] | LC90 [5, 10] | LC50 [5, 11] | LC90 [5, 11] | LC50 (Aedes aegypti adults; [10]) | LC90 (Aedes aegypti adults; [10]) | residual activity (in words) [6] | further results
1 | C=C(C)[C@@H]1CCC2=CC(=O)C[C@@H](C)[C@]2(C)C1 [Compound 7, Nootkatone] | 10/10 | 5/5 | 5/5 | 5/5 | 0.0029 (0.0025–0.0034) percent concentration, wt:vol | 0.0083 (0.0064–0.01) percent concentration, wt:vol | 57 µg/mL (≈ 261 µM) | 0.023 percent concentration, wt:vol | 0.13 percent concentration, wt:vol | 0.026 (0.018–0.039) percent concentration, wt:vol | 0.168 (0.094–0.448) percent concentration, wt:vol | 0.026 (0.018–0.039) percent concentration, wt:vol | 0.164 (0.093–0.429) percent concentration, wt:vol | 0.016 (0.012–0.02) percent concentration, wt:vol | 0.05 (0.036–0.081) percent concentration, wt:vol | 0.031 percent concentration, wt:vol | 0.134 percent concentration, wt:vol | 0.02 (0.014–0.029) percent concentration, wt:vol | 0.054 (0.041–0.105) percent concentration, wt:vol | considerable biological activity | mortality ([4]; 24 hour exposure at each test through 10 weeks, each group of arthropods): 100%; time at which biocidal activity began to dissipate below the 100% mortality level ([4]; vials treated with 2% solutions): 11 weeks; more effective than essential oil of Alaska yellow cedar (nymphal I. scapularis): about 98%; potency relative to essential oil of Alaska yellow cedar (nymphal I. scapularis): approximately 50 times; LC50 [5, 12]: 0.031 percent concentration, wt:vol; LC50 (Aedes aegypti adults; [11]): 0.019 (0.016–0.022) percent concentration, wt:vol; LC90 (Aedes aegypti adults; [11]): 0.046 (0.037–0.061) percent concentration, wt:vol; LC50 (Aedes aegypti adults; [12]): 0.013 (0.011–0.015) percent concentration, wt:vol; LC90 (Aedes aegypti adults; [12]): 0.038 (0.031–0.051) percent concentration, wt:vol
2 | CC1=CCC(O)(C(C)C)CC1 (stereo not drawn) [Compound 2, Terpinen-4-ol] |  |  |  |  |  |  |  |  |  |  |  |  |  |  |  |  |  |  |  |  | pesticidal activity in initial screening [7]: no pesticidal activity
3 | C=C(CO)C1CCC2=CCC[C@@H](C)[C@]2(C)C1 (stereo partly drawn) [Compound 10, 13-hydroxy-valencene] |  |  |  |  |  |  | 34 µg/mL (≈ 154 µM) | 0.0071 (0.0055–0.0091) percent concentration, wt:vol | 0.019 (0.014–0.031) percent concentration, wt:vol | 0.0083 (0.0057–0.011) percent concentration, wt:vol | 0.044 (0.029–0.081) percent concentration, wt:vol | 0.031 percent concentration, wt:vol | 0.303 percent concentration, wt:vol | 0.03 (0.022–0.041) percent concentration, wt:vol | 0.113 (0.074–0.226) percent concentration, wt:vol | 0.039 (0.029–0.053) percent concentration, wt:vol | 0.131 (0.087–0.268) percent concentration, wt:vol | 0.024 (0.02–0.028) percent concentration, wt:vol | 0.058 (0.046–0.081) percent concentration, wt:vol | considerable biological activity | C. pipiens LD50 (Culex p. pipiens): < 4.5×10^−3; LC50 (I. scapularis nymphs; Ixodes scapularis, 24 h): 51 µg/mL (≈ 231 µM); LC90 (I. scapularis nymphs; Ixodes scapularis, 24 h, 24 h exposure, 95% CI in parentheses, read-out: LC90): 160 µg/mL (≈ 726 µM); LC50 (X. cheopis adults; Xenopsylla cheopis, 24 h, read-out: LC50): 83 µg/mL (≈ 377 µM); LC90 (X. cheopis adults; Xenopsylla cheopis, 24 h, read-out: LC90): 210 µg/mL (≈ 953 µM); EC90 (Ae. aegypti adults; Aedes aegypti, 24 h, read-out: LC90 (the source's name)): 140 µg/mL (≈ 635 µM); LC50 (Aedes aegypti adults; [11]): 0.014 (0.012–0.016) percent concentration, wt:vol; LC90 (Aedes aegypti adults; [11]): 0.021 (0.019–0.027) percent concentration, wt:vol; LC50 (Aedes aegypti adults; [12]): 0.013 (0.0089–0.017) percent concentration, wt:vol; LC90 (Aedes aegypti adults; [12]): 0.04 (0.029–0.074) percent concentration, wt:vol
4 | C=C(C)C1CC=C2C=CCC(C)C2(C)C1 (stereo not drawn) [Compound 6, Nootkatene] | 10/10 | 4/5 | 0/5 | 0/5 | 0.011 (0.0086–0.014) percent concentration, wt:vol | 0.017 (0.012–0.024) percent concentration, wt:vol |  | 2.062 percent concentration, wt:vol | 524.656 percent concentration, wt:vol |  |  |  |  |  |  |  |  | 0.132 (0.096–0.236) percent concentration, wt:vol | 0.659 (0.329–2.855) percent concentration, wt:vol | nearly inactive | LC90 (I. scapularis nymphs; [8]): 0.06 (0.043–0.098) percent concentration, wt:vol; LC50 (I. scapularis nymphs; 24 h exposure, 95% CI in parentheses, listed as compound 6): 0.011 percent concentration, wt:vol; LC90 (X. cheopis adults): 0.075 (0.049–0.151) percent concentration, wt:vol; LC50 (X. cheopis adults; listed as compound 6): 0.017 percent concentration, wt:vol; LC50 (Ae. aegypti adults): 0.027 percent concentration, wt:vol; LC90 (Ae. aegypti adults): 0.059 percent concentration, wt:vol; residual activity (in words) ([6]; listed as compound 6): did not demonstrate any residual activity after one week
